# Legend:
# Format in all cases: cell-based
# Escherichia coli (25922) = assay: MIC, broth microdilution (CLSI), Escherichia coli (25922); details: pH 3, 18 to 24 hours
# Experimental: (§1) MIC testing is conducted using the broth (Mueller Hinton Broth) microdilution procedures relevant to each organism group as established by the Clinical and Laboratory Standards Institute (CLSI; 3-7). MIC plates are prepared in accordance with CLSI (3-7). To prepare the test plates, automated liquid handlers are used to conduct serial dilutions and liquid transfers. Automated liquid handlers utilized in this study include the Multidrop 384 (Labsystems, Helsinki, Finland) and the Biomek 2000 (Beckman Coulter, Fullerton CA). The solution is diluted to desired pH using 1 M Citric Acid or 1 M NaOH buffer. A standardized inoculum of each test organism is prepared per CLSI methods (3, 5-7) to equal a 0.5 McFarland standard in the appropriate media followed by an additional 1:20 dilution (1:10 for anaerobes).
# (§2) The plates are then inoculated with 10 μL of the diluted 0.5 McFarland suspension using the Biomek 2000 from low to high drug concentration, resulting in a final concentration of approximately 5×10^5 CFU/mL per well. An un-inoculated plate is incubated for the purpose of assessing solubility of the drug in the test media. The plates are stacked 3 to 4 high, covered with a sterile lid on the top plate, and incubated for 18 to 24 hours according to CLSI. The MIC is recorded as the lowest concentration of respective compound that inhibited visible growth of the organism.
# Candida albicans (22972) = assay: MIC, broth microdilution (CLSI), Candida albicans (22972); details: pH 3, 18 to 24 hours
# Experimental: as §1, §2
# [1] = tested on: Pseudomonas aeruginosa (27853); assay: MIC, broth microdilution (CLSI), Pseudomonas aeruginosa (27853); details: pH 3, 18 to 24 hours
# Experimental: as §1, §2
# [2] = tested on: Staphylococcus aureus (43330); assay: MIC, broth microdilution (CLSI), Staphylococcus aureus (43330); details: pH 3, 18 to 24 hours
# Experimental: as §1, §2
# [3] = tested on: Pseudomonas aeruginosa (0103); assay: MIC, broth microdilution (CLSI), Pseudomonas aeruginosa (0103); details: pH 4-5, 18 to 24 hours
# Experimental: as §1, §2
# Escherichia coli (6260) = assay: MIC, broth microdilution (CLSI), Escherichia coli (6260); details: pH 4-5, 18 to 24 hours
# Experimental: as §1, §2
# Escherichia coli (0102) = assay: MIC, broth microdilution (CLSI), Escherichia coli (0102); details: pH 4-5, 18 to 24 hours
# Experimental: as §1, §2
# [4] = tested on: Pseudomonas aeruginosa (6234); assay: MIC, broth microdilution (CLSI), Pseudomonas aeruginosa (6234); details: pH 4-5, 18 to 24 hours
# Experimental: as §1, §2
# [5] = tested on: Pseudomonas aeruginosa (6160); assay: MIC, broth microdilution (CLSI), Pseudomonas aeruginosa (6160); details: pH 4-5, 18 to 24 hours
# Experimental: as §1, §2
# [6] = tested on: Pseudomonas aeruginosa (6326); assay: MIC, broth microdilution (CLSI), Pseudomonas aeruginosa (6326); details: pH 4-5, 18 to 24 hours
# Experimental: as §1, §2
# [7] = tested on: Pseudomonas aeruginosa (6328); assay: MIC, broth microdilution (CLSI), Pseudomonas aeruginosa (6328); details: pH 4-5, 18 to 24 hours
# Experimental: as §1, §2
# Escherichia coli (6098) = assay: MIC, broth microdilution (CLSI), Escherichia coli (6098); details: pH 4-5, 18 to 24 hours
# Experimental: as §1, §2
# Escherichia coli (6259) = assay: MIC, broth microdilution (CLSI), Escherichia coli (6259); details: pH 4-5, 18 to 24 hours
# Experimental: as §1, §2
# Escherichia coli (6258) = assay: MIC, broth microdilution (CLSI), Escherichia coli (6258); details: pH 4-5, 18 to 24 hours
# Experimental: as §1, §2
SMILES,MIC (Escherichia coli (25922)),MIC (Candida albicans (22972)),MIC [1],MIC [2],MIC [3],MIC (Escherichia coli (6260)),MIC (Escherichia coli (0102)),MIC [4],MIC [5],MIC [6],MIC [7],MIC (Escherichia coli (6098)),MIC (Escherichia coli (6259)),MIC (Escherichia coli (6258))
"CCCCOP(=O)(O)OC[C@H]1O[C@@H](n2cnc3c(N)ncnc32)C[C@@H]1O [LAI-017, ((2R,3S,5R)-5-(6-amino-9H-purin-9-yl)-3-hydroxytetrahydrofuran-2-yl)methyl butyl hydrogen phosphate]",25 mg/mL,5 mg/mL,5 mg/mL,25 mg/mL,,,,,,,,,,
"CCCCOP(=O)(O)OC[C@H]1O[C@@H](n2ncc3c(N)ncnc32)C[C@@H]1O [LAI-018, ((2R, 3S, 5R)-5-(4-amino-1H-pyrazolo [3,4-d]pyrimidine-1-yl)-3-hydroxytetra hydrofuran-2-yl)methyl butyl hydrogen phosphate]",25 mg/mL,5 mg/mL,25 mg/mL,25 mg/mL,,,,,,,,,,
"CCCCOP(=O)(O)OC[C@H]1O[C@@H](n2cnc3cnc(N)nc32)C[C@@H]1O [LAI-020, ((2R,3S,5R)-5-(2-amino-9H-purin-9-yl)-3-hydroxytetrahydrofuran-2-yl)-methyl butyl hydrogen phosphate]",25 mg/mL,25 mg/mL,5 mg/mL,25 mg/mL,,,,,,,,,,
"CCCCOP(=O)(O)OC[C@H]1O[C@@H](n2cnc3c(=O)[nH]c(N)nc32)C[C@@H]1O [R-4, ((2R,3S,5R)-5-(2-amino-1,9-dihydro-6H-purin-6-one-9-yl)-3-hydroxytetrahydrofuran-2-yl)-methyl butyl hydrogen phosphate]",,,,,25 mg/mL,100 mg/mL,50 mg/mL,25 mg/mL,50 mg/mL,,,,,
"CCCCOP(=O)(O)OC[C@H]1O[C@@H](n2cnc3c(=O)[nH]c(N)nc32)[C@H](OC)[C@@H]1O [R-8, ((2R,3R,4R,5R)-5-(2-amino-1,9-dihydro-6H-purin-6-one-9-yl)-4-methoxy-3-hydroxytetrahydrofuran-2-yl)-methyl butyl hydrogen phosphate]",,,,,100 mg/mL,100 mg/mL,100 mg/mL,50 mg/mL,100 mg/mL,100 mg/mL,100 mg/mL,100 mg/mL,100 mg/mL,100 mg/mL

# — patent US20260294949A1, “SUBSTITUTED BICYCLIC HETEROCYCLE COMPOUNDS, COMPOSITIONS, AND USES THEREOF” (Lakewood Amedex, Inc., priority 2023, published 2026)
